# In the supplement of paper PMC10331698:
# ± gives the standard deviation of the averaged measurements.
# What was measured:
# Experiment in all cases: level (log10 ratio to DMSO vehicle control); higher = higher biomarker level / cell amount than vehicle control
# [1] = compound: C=C(C)C(=O)OCC(F)(F)C(F)(F)C(F)(F)F [2,2,3,3,4,4,4-Heptafluorobutyl methacrylate]; conditions: in DMSO
# Experimental: (§1)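 BioMAP Diversity Plus panel of 12 human primary cell co-culture systems (3C, 4H, LPS, SAg, BT, BF4T, BE3C, CASM3C, HDF3CGF, KF3CT, MyoF, Mphg). Compounds were added 1 h before stimulation and left for 24 h (MyoF 48 h; BT 72 h for soluble read-outs or 6 d for IgG). Biomarkers were read by ELISA, cytotoxicity by SRB, PBMC viability and proliferation by Alamar Blue. Each well value was divided by the mean of 8 DMSO control wells on the same plate and log10 transformed; duplicate blinded samples were tested at 4 concentrations.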
# [2] = compound: C=CC(=O)OCC(F)(F)C(F)(F)C(F)(F)C(F)(F)C(F)(F)C(F)(F)C(F)(F)C(F)F [1H,1H,9H-Perfluorononyl acrylate]; conditions: in DMSO
# Experimental: as §1
# [3] = compound: C=CC(=O)OCC(F)(F)C(F)(F)C(F)(F)C(F)(F)COC(=O)C=C [1H,1H,6H,6H-Perfluorohexane-1,6-diol diacrylate]; conditions: 6700 nM; in DMSO
# Experimental: as §1
# [4] = compound: Cc1ccc(S(=O)(=O)OCC(F)(F)C(F)(F)C(F)(F)C(F)(F)C(F)(F)C(F)F)cc1 [1H,1H,7H-Perfluoroheptyl 4-methylbenzenesulfonate]; conditions: in DMSO
# Experimental: as §1
# [5] = compound: FC(F)(F)C(F)(F)C(F)(F)C(F)(F)CCI [1H,1H,2H,2H-Perfluorohexyl iodide]; conditions: in DMSO
# Experimental: as §1
# [6] = compound: FC(F)(F)COC(OCC(F)(F)F)OCC(F)(F)F [tris(Trifluoroethoxy)methane]; conditions: in DMSO
# Experimental: as §1
# Perfluorooctanoic acid = compound: O=C(O)C(F)(F)C(F)(F)C(F)(F)C(F)(F)C(F)(F)C(F)(F)C(F)(F)F [Perfluorooctanoic acid]; conditions: in DMSO
# Experimental: as §1
# [7] = compound: OCCC(F)(F)C(F)(F)C(F)(F)C(F)(F)C(F)(F)C(F)(F)C(F)(F)C(F)(F)F [8:2 Fluorotelomer alcohol]; conditions: 6700 nM; in DMSO
# Experimental: as §1
Test System,level (log10) ([1]; 6700 nM),level (log10) ([1]; 20000 nM),level (log10) ([1]; 60000 nM),level (log10) ([2]; 6700 nM),level (log10) ([2]; 20000 nM),level (log10) ([2]; 60000 nM),level (log10) [3],level (log10) ([4]; 6700 nM),level (log10) ([4]; 20000 nM),level (log10) ([4]; 60000 nM),level (log10) ([5]; 6700 nM),level (log10) ([5]; 20000 nM),level (log10) ([5]; 60000 nM),level (log10) ([6]; 6700 nM),level (log10) ([6]; 20000 nM),level (log10) ([6]; 60000 nM),level (log10) (Perfluorooctanoic acid; 6700 nM),level (log10) (Perfluorooctanoic acid; 20000 nM),level (log10) (Perfluorooctanoic acid; 60000 nM),level (log10) [7]
BF4T:CXCL8/IL-8,0.044 ± 0.047,0.0155 ± 0.073,0.037 ± 0.037,-0.0025 ± 0.061,0.0315 ± 0.053,0.0175 ± 0.012,-0.0265 ± 0.013,-0.0195 ± 0.012,-0.0615 ± 0.012,-0.0515 ± 0.011,0.0135 ± 0.025,0.0195 ± 0.00071,0.0355 ± 0.03,0 ± 0.037,0.007 ± 0.021,0.005 ± 0.024,-0.0035 ± 0.013,-0.0085 ± 0.0035,-0.0025 ± 0.016,-0.0095 ± 0.0092
BF4T:PAI-I,-0.0035 ± 0.00071,0.0015 ± 0.0064,0.007,0.007 ± 0.0057,0.003 ± 0.0085,0.0005 ± 0.012,-0.015 ± 0.0014,-0.0075 ± 0.025,-0.0295 ± 0.011,-0.0315 ± 0.0035,0.0075 ± 0.0078,0.008 ± 0.018,0.01 ± 0.038,0.0025 ± 0.023,-0.012 ± 0.0042,0.007,0.0005 ± 0.0021,0.0015 ± 0.0021,-0.007 ± 0.0099,-0.0135 ± 0.0035
SAg:CD62E/E-Selectin,0.0045 ± 0.039,-0.0225 ± 0.011,0.0015 ± 0.019,-0.0345 ± 0.016,-0.0595 ± 0.015,-0.121 ± 0.052,-0.15 ± 0.021,0.021 ± 0.0028,0.007 ± 0.018,-0.0115 ± 0.028,-0.0095 ± 0.005,-0.014 ± 0.014,-0.008 ± 0.018,0.004 ± 0.034,-0.022 ± 0.025,-0.0045 ± 0.026,0.009 ± 0.0057,0.015 ± 0.0085,0.086 ± 0.0014,-0.012
BE3C:CD87/uPAR,-0.004 ± 0.0028,0.0075 ± 0.015,0.017 ± 0.027,0.0055 ± 0.023,0.0395 ± 0.012,0.0365 ± 0.016,0.014 ± 0.023,0.026 ± 0.017,-0.004 ± 0.0085,0.005 ± 0.033,-0.0105 ± 0.019,-0.011,0.0285 ± 0.011,-0.01 ± 0.0028,0.0475 ± 0.047,-0.0075 ± 0.023,-0.039 ± 0.057,-0.028 ± 0.072,0.0245 ± 0.023,-0.023 ± 0.041
BF4T:CD90,0 ± 0.0071,-0.004 ± 0.0057,-0.007 ± 0.0042,-0.0085 ± 0.016,0.005 ± 0.0071,-0.022 ± 0.0071,-0.0265 ± 0.0021,-0.0095 ± 0.0064,-0.015 ± 0.014,-0.0175 ± 0.0092,-0.011 ± 0.0085,-0.018 ± 0.021,-0.0075 ± 0.005,-0.008 ± 0.0042,-0.004 ± 0.0028,-0.0035 ± 0.0021,-0.0095 ± 0.022,-0.006 ± 0.0028,-0.0105 ± 0.019,-0.022 ± 0.0099
SAg:PBMC Cytotoxicity,-0.0105 ± 0.037,0.015 ± 0.011,0.0075 ± 0.044,-0.015 ± 0.0057,-0.0795 ± 0.0092,-0.194 ± 0.1,-0.066 ± 0.038,0.0275 ± 0.0092,0.0285 ± 0.0092,0.017 ± 0.02,0.006 ± 0.03,-0.0025 ± 0.03,-0.093 ± 0.088,-0.0115 ± 0.0078,0.01 ± 0.017,0.0135 ± 0.022,0.0195 ± 0.0021,0.022 ± 0.0085,0.042 ± 0.016,-0.0295 ± 0.012
LPS:M-CSF,0.0125 ± 0.042,0.007 ± 0.035,0.0165 ± 0.023,0.0015 ± 0.032,-0.0025 ± 0.0092,-0.0265 ± 0.057,-0.021 ± 0.021,-0.019 ± 0.033,-0.026 ± 0.0057,0.008 ± 0.03,0.002 ± 0.0042,0 ± 0.0099,-0.0055 ± 0.028,0.003 ± 0.0085,0.005 ± 0.0042,-0.0005 ± 0.0092,0.0255 ± 0.054,-0.016 ± 0.1,0.06 ± 0.078,-0.06 ± 0.13
BE3C:HLA-DR,-0.0005 ± 0.015,0.006 ± 0.016,0.003 ± 0.035,-0.0215 ± 0.029,-0.01 ± 0.021,-0.0305 ± 0.012,-0.048 ± 0.0071,-0.0155 ± 0.005,-0.0195 ± 0.012,-0.025 ± 0.0014,-0.0105 ± 0.0064,0 ± 0.0014,-0.005 ± 0.0042,-0.0015 ± 0.011,0.0155 ± 0.0064,0.006 ± 0.021,-0.023 ± 0.0042,-0.0225 ± 0.023,-0.013 ± 0.034,-0.02
4H:CCL26/Eotaxin-3,0.005 ± 0.02,0.0045 ± 0.0078,-0.0035 ± 0.022,-0.0045 ± 0.0035,-0.016 ± 0.031,-0.052 ± 0.024,-0.0435 ± 0.005,0.007 ± 0.0057,-0.0015 ± 0.013,-0.057 ± 0.052,-0.0145 ± 0.032,-0.06 ± 0.013,-0.1 ± 0.0042,0.018 ± 0.047,0.0235 ± 0.043,0.0415 ± 0.0078,0.0215 ± 0.087,-0.022 ± 0.12,-0.0255 ± 0.14,0.017 ± 0.054
3C:CD87/uPAR,-0.01 ± 0.025,-0.0125 ± 0.036,0.012 ± 0.0085,0.012 ± 0.04,0.016 ± 0.013,0.017 ± 0.0099,0.0105 ± 0.029,-0.018 ± 0.0014,0.004 ± 0.017,-0.027 ± 0.024,0.0035 ± 0.013,-0.005 ± 0.0071,0.0085 ± 0.025,-0.0515 ± 0.063,-0.032 ± 0.027,-0.018 ± 0.04,-0.0005 ± 0.0021,-0.0035 ± 0.005,-0.0425 ± 0.0021,0.008 ± 0.018
LPS:CCL2/MCP-1,0.0125 ± 0.015,-0.002 ± 0.0028,0.018 ± 0.02,-0.023 ± 0.021,-0.007 ± 0.045,-0.055 ± 0.0085,-0.0285 ± 0.019,-0.013 ± 0.0057,-0.01 ± 0.0071,-0.004 ± 0.013,-0.016 ± 0.0014,0.0055 ± 0.0078,-0.013 ± 0.024,0.0085 ± 0.04,0.021 ± 0.042,0.036 ± 0.034,-0.0035 ± 0.00071,0.013,0.0525 ± 0.022,0.0055 ± 0.011
BE3C:CXCL8/IL-8,0.016 ± 0.042,-0.008 ± 0.031,0.013 ± 0.058,-0.0165 ± 0.016,-0.012 ± 0.013,-0.004 ± 0.024,-0.095 ± 0.013,-0.0345 ± 0.042,-0.12 ± 0.059,-0.126 ± 0.028,0.0225 ± 0.0078,0.016 ± 0.025,0.0525 ± 0.057,0.018 ± 0.051,0.0155 ± 0.04,0.0505 ± 0.013,-0.029 ± 0.055,-0.0165 ± 0.057,-0.0385 ± 0.0035,-0.054 ± 0.0042
LPS:sTNF-alpha,0.005 ± 0.0057,0.018 ± 0.052,0.0415 ± 0.0092,0.085 ± 0.028,0.0465 ± 0.042,0.004 ± 0.086,0.0235 ± 0.029,0.003 ± 0.0057,-0.006 ± 0.016,-0.0035 ± 0.0064,-0.003 ± 0.12,0.0385 ± 0.069,0.088 ± 0.071,-0.009 ± 0.017,0.001,0.0105 ± 0.011,0.032 ± 0.0099,0.0305 ± 0.021,0.0085 ± 0.013,0.0175 ± 0.03
4H:CD87/uPAR,0.035 ± 0.03,0.012 ± 0.0014,0.055 ± 0.048,-0.024 ± 0.035,-0.043 ± 0.028,-0.034 ± 0.061,-0.04 ± 0.027,0.005 ± 0.0071,0.011 ± 0.02,-0.117 ± 0.032,-0.0115 ± 0.0021,-0.0245 ± 0.022,-0.0255 ± 0.0064,0.0405 ± 0.07,0.0305 ± 0.052,0.0185 ± 0.064,-0.0695 ± 0.053,-0.0395 ± 0.1,-0.083 ± 0.048,-0.069 ± 0.025
